Data reported in publication PMC2587100 (Biochemistry, 2008).

Legend:
Assay type in all cases: biochemical
[1] = target: alkaline phosphatase (AP) (Escherichia coli, UniProt P00634); assay: steady-state hydrolysis by purified enzyme, kcat/KM
[2] = target: T1, alkaline phosphatase (AP) (Escherichia coli, UniProt P00634, R188S); assay: as above
[3] = target: T2, alkaline phosphatase (AP) (Escherichia coli, UniProt P00634, R188K); assay: as above
[4] = target: T2, alkaline phosphatase (AP); assay: […]-based hydrolysis assay, kcat/KM
[5] = target: T1, alkaline phosphatase (AP); assay: […]-based hydrolysis assay, kcat/KM
[6] = target: T1, alkaline phosphatase (AP); assay: continuous absorbance assay of hydrolysis, kcat/KM
[7] = target: T2, alkaline phosphatase (AP); assay: continuous absorbance assay of hydrolysis, kcat/KM

T2 sequence (P00634 23-471 R188K): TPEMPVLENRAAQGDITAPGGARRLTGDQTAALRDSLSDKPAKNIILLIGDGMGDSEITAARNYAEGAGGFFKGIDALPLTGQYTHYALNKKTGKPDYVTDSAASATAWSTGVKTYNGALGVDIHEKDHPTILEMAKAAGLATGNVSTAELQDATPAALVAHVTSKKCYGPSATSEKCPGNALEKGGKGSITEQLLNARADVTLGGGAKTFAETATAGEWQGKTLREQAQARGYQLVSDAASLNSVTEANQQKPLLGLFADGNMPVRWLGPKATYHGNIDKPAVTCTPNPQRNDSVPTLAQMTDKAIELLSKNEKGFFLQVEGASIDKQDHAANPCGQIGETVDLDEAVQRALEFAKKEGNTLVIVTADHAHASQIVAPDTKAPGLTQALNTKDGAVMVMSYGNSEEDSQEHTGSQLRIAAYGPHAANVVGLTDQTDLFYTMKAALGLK
T1 sequence (P00634 23-471 R188S): as the sequence (P00634 23-471 R188K) above, with K166S counted along it
Sequence of alkaline phosphatase (AP) (Escherichia coli, UniProt P00634) (P00634 22-471): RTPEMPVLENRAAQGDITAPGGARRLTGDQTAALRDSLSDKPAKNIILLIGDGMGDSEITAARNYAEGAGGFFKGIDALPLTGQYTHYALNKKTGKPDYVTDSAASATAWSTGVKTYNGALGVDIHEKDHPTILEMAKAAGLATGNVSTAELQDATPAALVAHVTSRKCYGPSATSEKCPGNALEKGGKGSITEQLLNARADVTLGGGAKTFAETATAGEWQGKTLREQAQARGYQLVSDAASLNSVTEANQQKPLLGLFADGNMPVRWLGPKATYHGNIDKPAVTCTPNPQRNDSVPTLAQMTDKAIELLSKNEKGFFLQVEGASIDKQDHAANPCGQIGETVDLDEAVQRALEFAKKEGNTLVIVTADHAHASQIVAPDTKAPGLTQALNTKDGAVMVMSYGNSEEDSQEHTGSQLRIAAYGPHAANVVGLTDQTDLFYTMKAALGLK

O=[N+]([O-])c1ccc(OP(O)(O)=S)cc1 [pNPPS, p-Nitrophenyl O-phosphorothioate]
kcat/KM (M^-1s^-1) / pNPPS [1]: 5.5 × 10^3 M^−1s^−1 | kcat/KM (M^-1s^-1) / pNPPS [2]: 2.6 × 10^3 M^−1s^−1 | kcat/KM (M^-1s^-1) / pNPPS [3]: 1.6 × 10^4 M^−1s^−1

CCOP(=O)(O)O [EtOP, ethyl phosphate]
EtOP / kcat/KM [4]: 20 M⁻¹ s⁻¹ | EtOP / kcat/KM [5]: 24 M⁻¹ s⁻¹

O=[N+]([O-])c1ccc(OP(=O)(O)O)cc1 [pNPP, p-Nitrophenyl phosphate]
pNPP / kcat/KM (M^-1s^-1) [6]: 1.0 × 10^5 M^−1s^−1 | pNPP / kcat/KM (M^-1s^-1) [7]: 1.9 × 10^5 M^−1s^−1
